Experimental data: US10131644B2, “Aryl sultam derivatives as RORc modulators” (Genentech, Inc., priority 2014, dated 2018)
pIC50: −log10 of the molar value.

Biological target: T1, RORc (Homo sapiens, UniProt P51449)
T1 sequence (P51449 269-508 limits assumed): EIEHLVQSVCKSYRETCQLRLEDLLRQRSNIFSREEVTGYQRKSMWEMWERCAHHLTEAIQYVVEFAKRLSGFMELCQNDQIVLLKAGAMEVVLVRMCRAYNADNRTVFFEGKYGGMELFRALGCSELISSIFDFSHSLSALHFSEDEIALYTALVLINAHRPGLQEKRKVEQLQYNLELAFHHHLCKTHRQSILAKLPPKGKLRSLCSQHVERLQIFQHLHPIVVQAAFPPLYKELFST
Assay: In vitro RORc ligand binding assay (25-[3H]hydroxycholesterol displacement)
Settings: IC50, IC50 values for RORc; unit inferred

Row | Compound | pIC50
1 | C[C@H]1CC[C@H](c2ccccc2)S(=O)(=O)N1Cc1ccc(C2(C(=O)NCCCN)CCOCC2)cc1F [Compound 55, N-(3-aminopropyl)-4-[3-fluoro-4-[[(3S,6R)-3-methyl-1,1-dioxo-6-phenyl-thiazinan-2-yl]methyl]phenyl]tetrahydropyran-4-carboxamide] | 6.04
2 | C[C@H]1CC[C@H](c2ccccc2)S(=O)(=O)N1Cc1cc(F)c([C@]2(O)CC[C@@H](n3cnnc3)CC2)cc1F [Compound 37, 1-[2,5-Difluoro-4-((3S,6R)-3-methyl-1,1-dioxo-6-phenyl-[1,2]thiazinan-2-ylmethyl)-phenyl]-4-[1,2,4]triazol-4-yl-cyclohexanol] | 7.70
3 | C[C@H]1CC[C@@H](c2ccccc2)S(=O)(=O)N1Cc1cc(F)c(C2(CO)CCC(O)CC2)cc1F (stereo partly drawn) [Compound 132] | 6.62
4 | COC(=O)C1(c2ccc(CN3C(C)CCC(c4ccccc4)S3(=O)=O)c(F)c2)CCC(n2cnnc2)CC1 (stereo not drawn) [Compound 46, methyl 1-(3-fluoro-4-((3-methyl-1,1-dioxido-6-phenyl-1,2-thiazinan-2-yl)methyl)phenyl)-4-(4H-1,2,4-triazol-4-yl)cyclohexanecarboxylate] | 7.27
5 | C[C@H]1CC[C@H](c2ccccc2)S(=O)(=O)N1Cc1ccc(C2(C#N)CC2)cc1F [Compound 109, 1-[3-fluoro-4-[[(3S,6R)-3-methyl-1,1-dioxo-6-phenyl-thiazinan-2-yl]methyl]phenyl]cyclopropanecarbonitrile] | 6.94
6 | CNC(=O)[C@]1(c2ccc(CN3[C@@H](C)CC[C@H](c4ccccc4)S3(=O)=O)c(F)c2)CC[C@H](n2cnnc2)CC1 [Compound 43, 1-[3-Fluoro-4-((3S,6R)-3-methyl-1,1-dioxo-6-phenyl[1,2]thiazinan-2-ylmethyl)-phenyl]-4-[1,2,4]triazol-4-yl-cyclohexanecarboxylic acid methylamide] | 7.02
7 | CC(=O)NC1(c2ccc(CN3[C@@H](C)CC[C@H](c4ccccc4)S3(=O)=O)c(F)c2)CCOCC1 [Compound 94, N-[4-[3-fluoro-4-[[(3S,6R)-3-methyl-1,1-dioxo-6-phenyl-thiazinan-2-yl]methyl]phenyl]tetrahydropyran-4-yl]acetamide] | 7.03
8 | C[C@H]1CC[C@H](c2ccccc2)S(=O)(=O)N1Cc1cc(F)c(C2(C(=O)O)CCOCC2)cc1F [Compound 96, 4-[2,5-difluoro-4-[[(3S,6R)-3-methyl-1,1-dioxo-6-phenyl-thiazinan-2-yl]methyl]phenyl]tetrahydropyran-4-carboxylic acid] | 6.67
9 | C[C@H]1CC[C@H](c2ccccc2)S(=O)(=O)N1Cc1cc(F)c(C2(C#N)CCOCC2)cc1F [Compound 122, 4-[2,5-difluoro-4-[[(3S,6R)-3-methyl-1,1-dioxo-6-phenyl-thiazinan-2-yl]methyl]phenyl]tetrahydropyran-4-carbonitrile] | 7.57
10 | C[C@H]1CC[C@H](c2ccccc2)S(=O)(=O)N1Cc1cc(F)c(C2(CO)CC2)cc1F [Compound 126, [1-[2,5-difluoro-4-[[(3S,6R)-3-methyl-1,1-dioxo-6-phenyl-thiazinan-2-yl]methyl]phenyl]cyclopropyl]methanol] | 7.30
11 | COCCOCC1(c2ccc(CN3[C@@H](C)CC[C@H](c4ccccc4)S3(=O)=O)c(F)c2)CCOCC1 [Compound 82, (3S,6R)-2-[[2-fluoro-4-[4-(2-methoxyethoxymethyl)tetrahydropyran-4-yl]phenyl]methyl]-3-methyl-6-phenyl-thiazinane 1,1-dioxide] | 7.15
12 | C[C@H]1CC[C@H](c2ccccc2)S(=O)(=O)N1Cc1cc(F)c(C2(C#N)CC2)cc1F [Compound 123, 1-[2,5-difluoro-4-[[(3S,6R)-3-methyl-1,1-dioxo-6-phenyl-thiazinan-2-yl]methyl]phenyl]cyclopropanecarbonitrile] | 7.64
13 | C[C@H]1CC[C@H](c2ccccc2)S(=O)(=O)N1Cc1ccc(C2(CCCO)CCOCC2)cc1F [Compound 81, 3-[4-[3-fluoro-4-[[(3S,6R)-3-methyl-1,1-dioxo-6-phenyl-thiazinan-2-yl]methyl]phenyl]tetrahydropyran-4-yl]propan-1-ol] | 8.21
14 | C[C@H]1CC[C@H](c2ccccc2)S(=O)(=O)N1Cc1cc(F)c(C2(COCC(N)=O)CC2)cc1F [Compound 127, 2-[[1-[2,5-difluoro-4-[[(3S,6R)-3-methyl-1,1-dioxo-6-phenyl-thiazinan-2-yl]methyl]phenyl]cyclopropyl]methoxy]acetamide] | 7.70
15 | C[C@H]1CC[C@H](c2ccccc2)S(=O)(=O)N1Cc1ccc([C@]2(C(N)=O)CC[C@@H](n3cnnc3)CC2)cc1F [Compound 25, 1-[3-Fluoro-4-((3S,6R)-3-methyl-1,1-dioxo-6-phenyl-[1,2]thiazinan-2-ylmethyl)-phenyl]-4-[1,2,4]triazol-4-yl-cyclohexanecarboxylic acid amide] | 7.66
16 | C[C@H]1CC[C@H](c2ccccc2)S(=O)(=O)N1Cc1ccc(C2(OCC(N)=O)CCOCC2)cc1F [Compound 113, 2-[4-[3-fluoro-4-[[(3S,6R)-3-methyl-1,1-dioxo-6-phenyl-thiazinan-2-yl]methyl]phenyl]tetrahydropyran-4-yl]oxyacetamide] | 8.30
17 | C[C@H]1CC[C@H](c2ccccc2)S(=O)(=O)N1Cc1ccc(C2(/C(N)=N\O)CCOCC2)cc1F [Compound 93, 4-[3-fluoro-4-[[(3S,6R)-3-methyl-1,1-dioxo-6-phenyl-thiazinan-2-yl]methyl]phenyl]-N′-hydroxy-tetrahydropyran-4-carboxamidine] | 7.42
18 | CC(=O)N1CCC(C#N)(c2cc(F)c(CN3[C@@H](C)CC[C@H](c4ccccc4)S3(=O)=O)cc2F)CC1 [Compound 148, 1-acetyl-4-[2,5-difluoro-4-[[(3S,6R)-3-methyl-1,1-dioxo-6-phenyl-thiazinan-2-yl]methyl]phenyl]piperidine-4-carbonitrile] | 7.84
19 | C[C@H]1CC[C@H](c2ccccc2)S(=O)(=O)N1Cc1ccc(C2(C(N)=O)CCOCC2)cc1F [Compound 67, 4-[3-fluoro-4-[[(3S,6R)-3-methyl-1,1-dioxo-6-phenyl-thiazinan-2-yl]methyl]phenyl]tetrahydropyran-4-carboxamide] | 7.74

Continued, values first:

Row | pIC50 | Compound
20 | 7.09 | C[C@H]1CC[C@H](c2ccccc2)S(=O)(=O)N1Cc1ccc(OCC2(CO)CCOCC2)cc1F [Example 3, {4-{3-Fluoro-4-((3S,6R)-3-methyl-1,1-dioxo-6-phenyl-[1,2]thiazinan-2-ylmethyl)-phenoxymethyl]-tetrahydro-pyran-4-yl}-methanol]
21 | 8.60 | C[C@H]1CC[C@H](c2ccccc2)S(=O)(=O)N1Cc1cc(F)c(C2(OCC(=O)NCCO)COC2)cc1F [Compound 176, 2-[3-[2,5-difluoro-4-[[(3S,6R)-3-methyl-1,1-dioxo-6-phenyl-thiazinan-2-yl]methyl]phenyl]oxetan-3-yl]oxy-N-(2-hydroxyethyl)acetamide]
22 | 7.94 | CC(=O)N1CCC(C(N)=O)(c2cc(F)c(CN3[C@@H](C)CC[C@H](c4ccccc4)S3(=O)=O)cc2F)CC1 [Compound 149, 1-acetyl-4-[2,5-difluoro-4-[[(3S,6R)-3-methyl-1,1-dioxo-6-phenyl-thiazinan-2-yl]methyl]phenyl]piperidine-4-carboxamide]
23 | 7.56 | C[C@H]1CC[C@H](c2ccccc2)S(=O)(=O)N1Cc1ccc(C2(NCC(=O)N(C)C)CCOCC2)cc1F [Compound 166, 2-[[4-[3-fluoro-4-[[(3S,6R)-3-methyl-1,1-dioxo-6-phenyl-thiazinan-2-yl]methyl]phenyl]tetrahydropyran-4-yl]amino]-N,N-dimethyl-acetamide]
24 | 7.45 | CC(=O)N1CCC(OCC(O)CO)(c2cc(F)c(CN3[C@@H](C)CC[C@H](c4ccccc4)S3(=O)=O)cc2F)CC1 (stereo in doubt) [Compound 168, 1-[4-[2,5-difluoro-4-[[(3S,6R)-3-methyl-1,1-dioxo-6-phenyl-thiazinan-2-yl]methyl]phenyl]-4-[(2S)-2,3-dihydroxypropoxy]-1-piperidyl]ethanone]
25 | 6.48 | CC(=O)N1CCC(O)(c2ccc(CN3[C@@H](C)CC[C@H](c4ccccc4)S3(=O)=O)cc2)CC1 [Example 7, 1-{4-Hydroxy-4-[4-((3S,6R)-3-methyl-1,1-dioxo-6-phenyl-[1,2]thiazinan-2-ylmethyl)-phenyl]-piperidin-1-yl}-ethanone]
26 | 8.36 | CNC(=O)COC1(c2cc(F)c(CN3[C@@H](C)CC[C@H](c4ccccc4)S3(=O)=O)cc2F)COC1 [Compound 177, 2-[3-[2,5-difluoro-4-[[(3S,6R)-3-methyl-1,1-dioxo-6-phenyl-thiazinan-2-yl]methyl]phenyl]oxetan-3-yl]oxy-N-methyl-acetamide]
27 | 7.17 | C[C@H]1CC[C@H](c2ccccc2)S(=O)(=O)N1Cc1ccc(OCC2(C)CCOCC2)cc1F [Example 2, (3S,6R)-2-[2-Fluoro-4-(4-methyl-tetrahydro-pyran-4-ylmethoxy)-benzyl]-3-methyl-6-phenyl-[1,2]thiazinane 1,1-dioxide]
28 | 7.34 | C[C@H]1CC[C@H](c2ccccc2)S(=O)(=O)N1Cc1ccc(OCC2(CS(C)(=O)=O)CCOCC2)cc1F [Example 4, (3S,6R)-2-[2-Fluoro-4-(4-methanesulfonylmethyl-tetrahydro-pyran-4-ylmethoxy)-benzyl]-3-methyl-6-phenyl-[1,2]thiazinane 1,1-dioxide]
29 | 6.64 | C[C@H]1CC[C@H](c2ccccc2)S(=O)(=O)N1Cc1ccc(C2(NC(=O)OC(C)(C)C)CC2)cc1F [Compound 152, tert-butyl N-[1-[3-fluoro-4-[[(3S,6R)-3-methyl-1,1-dioxo-6-phenyl-thiazinan-2-yl]methyl]phenyl]cyclopropyl]carbamate]
30 | 7.15 | C[C@H]1CC[C@H](c2ccccc2)S(=O)(=O)N1Cc1cc(F)c(C2(N)COC2)cc1F [Compound 190, 3-[2,5-difluoro-4-[[(3S,6R)-3-methyl-1,1-dioxo-6-phenyl-thiazinan-2-yl]methyl]phenyl]oxetan-3-amine]
